Data on 28 compounds can be found in patent US20130096105A1, “ArylSulfonamide Based Matrix Metalloprotease Inhibitors” (NOVARTIS AG, priority 2008, published 2013).

Where only a bound is given, the exact number is not on record here.

Experiment [1] concerns the target T1, Gelatinase (MMP-2) (Homo sapiens, UniProt P08253).
T1 sequence (P08253 110-660): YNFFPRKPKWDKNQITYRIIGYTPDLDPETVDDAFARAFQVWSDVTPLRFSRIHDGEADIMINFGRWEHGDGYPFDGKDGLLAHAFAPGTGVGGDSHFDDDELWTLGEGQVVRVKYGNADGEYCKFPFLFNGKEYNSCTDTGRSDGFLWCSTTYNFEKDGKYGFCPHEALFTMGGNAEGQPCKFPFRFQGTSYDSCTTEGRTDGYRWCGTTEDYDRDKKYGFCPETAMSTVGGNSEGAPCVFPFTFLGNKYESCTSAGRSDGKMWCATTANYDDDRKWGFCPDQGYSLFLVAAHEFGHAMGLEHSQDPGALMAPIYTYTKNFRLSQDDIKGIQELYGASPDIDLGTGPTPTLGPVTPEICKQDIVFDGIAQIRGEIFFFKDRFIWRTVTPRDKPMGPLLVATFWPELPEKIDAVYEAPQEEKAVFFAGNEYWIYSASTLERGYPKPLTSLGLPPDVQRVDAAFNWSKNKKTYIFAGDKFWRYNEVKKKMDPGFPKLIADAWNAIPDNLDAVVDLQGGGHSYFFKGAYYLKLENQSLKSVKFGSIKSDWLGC
In words: Gelatinase (MMP-2) inhibitory activity, fluorogenic peptide substrate cleavage. The format is biochemical. As to conditions: read-out: MMP02 IC50. As to the method: (§1) Gelatinase (MMP-2) inhibitory activities can be determined as follows: Stock solutions of substrate (MCA-Lys-Pro-Leu-Gly-Leu-Dpa-Ala-Arg-NH2) are prepared in DMSO at a concentration of 1.4 mM. Stock solutions of inhibitors (0.03 μM-3 mM) are also prepared in DMSO. The inhibitors are diluted into the assay solutions, and the controls use an equal volume of DMSO so that the final DMSO concentration from the inhibitor and substrate dilutions in all assays is 1.0%. Assays are performed in an assay buffer (100 mM sodium chloride, 10 μM ZnCl. Sub 2, 10 mM CaCl2, 100 mM Tris-Cl pH7.5, 0.05% Brij-35), containing 1.0% DMSO from the substrate and inhibitor additions. The substrate concentration used in the assays is 5 μM. The assays are carried out at 20-25° C. The fluorescence changes, as a result of substrate cleavage, are monitored using an excitation wavelength of 325 nm and an emission wavelength of 405 nm. The reaction mixtures are added in duplicate into appropriate wells of a 384-well assay plate. The reaction mixtures are preincubated with the inhibitors for 60 minutes The reactions are started by the addition of MMP substrate, and the fluorescence intensity changes are measured after 60 minutes The apparent enzyme activity in the presence of an inhibitor is then compared with that in the absence of any inhibitor to determine the inhibition effect of the inhibitor. These techniques are within the knowledge of one skilled in the art. The inhibition results are expressed as the inhibitor concentrations required to effect 50% inhibition (IC50) of the enzyme activity, as compared with the control (non-inhibited) reactions.

The target in experiment [2] is Collagenase-3 (MMP-13) (Homo sapiens, UniProt P45452). In words: Collagenase-3 (MMP-13) inhibitory activity, fluorogenic peptide substrate cleavage. In kind it is biochemical. The conditions noted are these: read-out: MMP13 IC50. On the procedure:
as §1
Collagenase-3 (MMP-13) inhibitory activity is determined as described above. Recombinant pro-collagenase-3 is activated with 1 mM APMA, and stored in the assay buffer after extensive dialysis in the assay buffer.

With `NS(=O)(=O)c1cc(C(=O)c2ccc3c(-c4ccc(-c5ccccc5)cc4)c[nH]c3c2)ccc1Cl` [Example 126, 5-(3-Biphenyl-4-yl-1H-indole-6-carbonyl)-2-chloro-benzenesulfonamide], the figures for the IC50 in experiment [1] and in experiment [2] were 22.8 µM and 10 µM, respectively.
The like results for `CC(C)(C)c1ccc(C(=O)c2ccc(Cl)c(S(N)(=O)=O)c2)cc1` [Example 26, 5-(4-tert-Butyl-benzoyl)-2-chloro-benzenesulfonamide] were, in that order, 17.2 µM and 10.5 µM.
On to `NS(=O)(=O)c1cc(C(=O)c2ccc(Br)cc2)ccc1Cl` [Example 22, 5-(4-Bromo-benzoyl)-2-chloro-benzenesulfonamide], for which the figures for the IC50 in experiment [1] and in experiment [2] were 14 µM and 2.05 µM, respectively.
The like results for `COc1ccc(C(=O)c2ccc(Cl)c(S(N)(=O)=O)c2)c(OC)c1` [Example 48, 2-Chloro-5-(2,4-dimethoxy-benzoyl)-benzenesulfonamide] were, in that order, more than 30 µM and 25.3 µM.
The like results for `NS(=O)(=O)c1cc(C(=O)c2ccc(-c3ccccc3)cc2)ccc1Cl` [Example 59, 5-(Biphenyl-4-carbonyl)-2-chloro-benzenesulfonamide] were, in that order, 1.16 µM and 2.63 µM.
The like results for `NS(=O)(=O)c1cc(C(=O)c2ccc(-c3ccccc3)cc2)ccc1Cl` [Example 76, 5-(Biphenyl-4-carbonyl)-2-chloro-benzenesulfonamide] were, in that order, 21.7 µM and 12 µM.
Regarding `COc1ccc(C(=O)c2ccc(C)c(S(N)(=O)=O)c2)cc1` [Example 6, 5-(4-Methoxy-benzoyl)-2-methyl-benzenesulfonamide], the results for the IC50 in experiment [1] and in experiment [2] were 2.78 µM and 4.51 µM, respectively.
The like results for `COC(=O)c1ccc(-c2ccc(C(=O)c3ccc(Cl)c(S(N)(=O)=O)c3)cc2)cc1` [Example 74, 4′-(4-Chloro-3-sulfamoyl-benzoyl)-biphenyl-4-carboxylic acid methyl ester] were, in that order, 0.93 µM and 0.24 µM.
The like results for `CCN(CC)c1ccc(C(=O)c2ccc(Cl)c(S(N)(=O)=O)c2)cc1` [Example 79, 2-Chloro-5-(4-diethylamino-benzoyl)-benzenesulfonamide] were, in that order, 5.72 µM and 10.4 µM.
As to `CC(C)COc1ccc(C(=O)c2ccc(Cl)c(S(N)(=O)=O)c2)cc1` [Example 17, 2-Chloro-5-(4-isobutoxy-benzoyl)-benzenesulfonamide], the IC50 in experiment [1] came to 2.3 µM; in experiment [2] it was 3.71 µM.
The like results for `NS(=O)(=O)c1cc(C(=O)c2ccc(N3CCC3=O)cc2)ccc1Cl` [Example 89, 2-Chloro-5-[4-(2-oxo-azetidin-1-yl)-benzoyl]-benzenesulfonamide] were, in that order, 2.06 µM and 3.34 µM.
Regarding `NS(=O)(=O)c1cc(C(=O)c2ccc(-c3ccnc(Cl)c3)cc2)ccc1Cl` [Example 43, 2-Chloro-5-[4-(2-chloro-pyridin-4-yl)-benzoyl]-benzenesulfonamide], the results for the IC50 in experiment [1] and in experiment [2] were 0.3 µM and 0.38 µM, respectively.
The like results for `Cc1ccc(C(=O)c2ccc3cc[nH]c3c2)cc1S(N)(=O)=O` [Example 145, 5-(1H-Indole-6-carbonyl)-2-methyl-benzenesulfonamide] were, in that order, 0.2 µM and 0.1 µM.
The like results for `NS(=O)(=O)c1cc(C(=O)c2ccc(C(=O)NCCCCc3ccccc3)cc2)ccc1Cl` [Example 37, 4-(4-Chloro-3-sulfamoyl-benzoyl)-N-(4-phenyl-butyl)-benzamide] were, in that order, 22.8 µM and 8.9 µM.
The like results for `CC(C)CCOc1ccc(C(=O)c2ccc(Cl)c(S(N)(=O)=O)c2)cc1` [Example 18, 2-Chloro-5-[4-(3-methyl-butoxy)-benzoyl]-benzenesulfonamide] were, in that order, 0.7 µM and 0.6 µM.
For the compound `Cc1ccc(-c2ccc(C(=O)c3ccc(Cl)c(S(N)(=O)=O)c3)cc2)cc1` [Example 61, 2-Chloro-5-(4′-methyl-biphenyl-4-carbonyl)-benzenesulfonamide], the IC50 in experiment [1] stood at 1.1 µM; in experiment [2], 1.02 µM.
Consider `COc1ccc(C(=O)c2ccc(S(C)(=O)=O)c(S(N)(=O)=O)c2)cc1` [Example 9, 2-Methanesulfonyl-5-(4-methoxy-benzoyl)-benzenesulfonamide], for which the IC50 in experiment [1] came out at 2.93 µM; in experiment [2], 11.3 µM.
As to `NS(=O)(=O)c1cc(C(=O)c2ccc(-c3ccc(C=O)cc3)cc2)ccc1Cl` [Example 72, 2-Chloro-5-(4′-formyl-biphenyl-4-carbonyl)-benzenesulfonamide], the values for the IC50 in experiment [1] and in experiment [2] were 0.18 µM and 0.13 µM, respectively.
The like results for `CS(=O)(=O)c1ccc(-c2c[nH]c3cc(C(=O)c4ccc(Cl)c(S(N)(=O)=O)c4)ccc23)cc1` [Example 124, 2-Chloro-5-[3-(4-methanesulfonyl-phenyl)-1H-indole-6-carbonyl]-benzenesulfonamide] were, in that order, 19.7 µM and 0.54 µM.
The like results for `CCCCCOc1ccc(C(=O)c2ccc(Cl)c(S(N)(=O)=O)c2)cc1` [Example 20, 2-Chloro-5-(4-pentyloxy-benzoyl)-benzenesulfonamide] were, in that order, 11 µM and 13.6 µM.
For `CC(C)c1n[nH]c2cc(C(=O)c3ccc(Cl)c(S(N)(=O)=O)c3)ccc12` [Example 101, 2-Chloro-5-(3-isopropyl-1H-indazole-6-carbonyl)-benzenesulfonamide], the IC50 came to 6.35 µM in experiment [1] and 3.65 µM in experiment [2].
As for `NS(=O)(=O)c1cc(C(=O)c2ccc(C(=O)NCCc3ccccc3)cc2)ccc1Cl` [Example 54, 4-(4-Chloro-3-sulfamoyl-benzoyl)-N-phenethyl-benzamide], the IC50 in experiment [1] is 23.4 µM; in experiment [2], 27.1 µM.
Consider `NS(=O)(=O)c1cc(C(=O)c2ccc(C(=O)NCCc3ccccn3)cc2)ccc1Cl` [Example 36, 4-(4-Chloro-3-sulfamoyl-benzoyl)-N-(2-pyridin-2-yl-ethyl)-benzamide], for which the IC50 in experiment [1] amounted to 14.9 µM; in experiment [2] it was 8.54 µM.
The like results for `NS(=O)(=O)c1cc(C(=O)c2ccc(O)cc2)ccc1Cl` [Example 55, 2-Chloro-5-(4-hydroxy-benzoyl)-benzenesulfonamide] were, in that order, 25.5 µM and 27.5 µM.
The like results for `NS(=O)(=O)c1cc(C(=O)c2ccc(C#Cc3ccccc3)cc2)ccc1Cl` [Example 32, 2-Chloro-5-(4-phenylethynyl-benzoyl)-benzenesulfonamide] were, in that order, 8.3 µM and 10 µM.
The like results for `NS(=O)(=O)c1cc(C(=O)c2ccc(O)cc2)ccc1Cl` [Example 15, 2-Chloro-5-(4-hydroxy-benzoyl)-benzenesulfonamide] were, in that order, 5.16 µM and 10 µM.
Turning to `NS(=O)(=O)c1cc(C(=O)c2ccc(Nc3ccccc3)cc2)ccc1Cl` [Example 92, 2-Chloro-5-(4-phenylamino-benzoyl)-benzenesulfonamide], the IC50 amounted to 22.8 µM in experiment [1] and 20.7 µM in experiment [2].
The like results for `COc1ccc(C(=O)c2ccc(F)c(S(N)(=O)=O)c2)cc1` [Example 2, 2-Fluoro-5-(4-methoxy-benzoyl)-benzenesulfonamide] were, in that order, 2.41 µM and 1.59 µM.
